In patent publication US12459922B2 (Gilead Sciences, Inc., priority 2022, dated 2025):

tested on: endogenous cellular STAT1 (phosphorylated at Tyr701) in NCI-H1373 cells; assay: Phospho-STAT1 (Tyr701) LANCE Ultra TR-FRET Detection Assay; type: cell-based; settings: Homo sapiens, NCI-H1373, 48 h, phospho-STAT1 (Tyr701) induction, read-out: NH1373 pSTAT1 EC50

For `O=c1[nH]ncc(N[C@H](CCCn2ccc3cc(-c4ncc(C(F)F)cn4)c(F)c(F)c3c2=O)COC(F)F)c1C(F)(F)F` [Example 388, (R)-2-(5-(difluoromethoxy)-4-((6-oxo-5-(trifluoromethyl)-1,6-dihydropyridazin-4-yl)amino)pentyl)-6-(5-(difluoromethyl)pyrimidin-2-yl)-7,8-difluoroisoquinolin-1(2H)-one], which EC50 is on record?
Its EC50 is 2.74 nM.

For `Nc1nc(-c2cc3ccn(CCC[C@H](COC(F)F)Nc4cn[nH]c(=O)c4C(F)(F)F)c(=O)c3c(F)c2F)ncc1C(F)(F)F` [Example 389, (R)-6-(4-amino-5-(trifluoromethyl)pyrimidin-2-yl)-2-(5-(difluoromethoxy)-4-((6-oxo-5-(trifluoromethyl)-1,6-dihydropyridazin-4-yl)amino)pentyl)-7,8-difluoroisoquinolin-1(2H)-one], which EC50 is on record?
The EC50 was 5.14 nM.

With `Nc1nc(-c2cc3ncn(CCC[C@H](COC(F)F)Nc4cn[nH]c(=O)c4C(F)(F)F)c(=O)c3cc2F)ccc1C(F)(F)F` [Example 390, (R)-7-(6-amino-5-(trifluoromethyl)pyridin-2-yl)-3-(5-(difluoromethoxy)-4-((6-oxo-5-(trifluoromethyl)-1,6-dihydropyridazin-4-yl)amino)pentyl)-6-fluoroquinazolin-4(3H)-one] as the compound, how does the EC50 read?
The EC50 was 11.7 nM.

With `Nc1nc(-c2cc3ccn(CCC[C@H](COC(F)F)Nc4cn[nH]c(=O)c4C(F)(F)F)c(=O)c3c(F)c2F)ncc1Cl` [Example 391, (R)-6-(4-amino-5-chloropyrimidin-2-yl)-2-(5-(difluoromethoxy)-4-((6-oxo-5-(trifluoromethyl)-1,6-dihydropyridazin-4-yl)amino)pentyl)-7,8-difluoroisoquinolin-1(2H)-one] as the compound, how does the EC50 read?
The EC50 was 6.3 nM.

`O=c1[nH]ncc(N[C@H](CCCn2ccc3cc(-c4ncc(Cl)cn4)c(F)c(F)c3c2=O)COC(F)F)c1C(F)(F)F` [Example 392, (R)-6-(5-chloropyrimidin-2-yl)-2-(5-(difluoromethoxy)-4-((6-oxo-5-(trifluoromethyl)-1,6-dihydropyridazin-4-yl)amino)pentyl)-7,8-difluoroisoquinolin-1(2H)-one] was tested. Which EC50 did it give?
The EC50 was 1.5 nM.

With `COc1cnc(-c2cc3ncn(CCC[C@H](COC(F)F)Nc4cn[nH]c(=O)c4C(F)(F)F)c(=O)c3cc2F)nc1N` [Example 393, (R)-7-(4-amino-5-methoxypyrimidin-2-yl)-3-(5-(difluoromethoxy)-4-((6-oxo-5-(trifluoromethyl)-1,6-dihydropyridazin-4-yl)amino)pentyl)-6-fluoroquinazolin-4(3H)-one] as the compound, how does the EC50 read?
The EC50 was 22.7 nM.

How did the EC50 turn out when `O=c1[nH]ncc(N[C@H](CCCn2cnc3cc(-c4ncc(Cl)cn4)c(F)cc3c2=O)COC(F)F)c1C(F)(F)F` [Example 394, (R)-7-(5-chloropyrimidin-2-yl)-3-(5-(difluoromethoxy)-4-((6-oxo-5-(trifluoromethyl)-1,6-dihydropyridazin-4-yl)amino)pentyl)-6-fluoroquinazolin-4(3H)-one] was run?
Its EC50 is 1.22 nM.

For `Nc1nc(-c2cc3ncn(CCC[C@H](COC(F)F)Nc4cn[nH]c(=O)c4C(F)(F)F)c(=O)c3cc2F)ccc1C(F)F` [Example 395, (R)-7-(6-amino-5-(difluoromethyl)pyridin-2-yl)-3-(5-(difluoromethoxy)-4-((6-oxo-5-(trifluoromethyl)-1,6-dihydropyridazin-4-yl)amino)pentyl)-6-fluoroquinazolin-4(3H)-one], which EC50 is on record?
Its EC50 is 30.4 nM.

Which EC50 does the source give for `O=c1[nH]ncc(N[C@H](CCCn2ccc3cc(-c4ncc(C(F)(F)F)s4)c(F)cc3c2=O)COC(F)F)c1C(F)(F)F` [Example 396, (R)-2-(5-(difluoromethoxy)-4-((6-oxo-5-(trifluoromethyl)-1,6-dihydropyridazin-4-yl)amino)pentyl)-7-fluoro-6-(5-(trifluoromethyl)thiazol-2-yl)isoquinolin-1(2H)-one] here?
The EC50 was 48.8 nM.

`Nc1nc(-c2cc3ccn(CCC[C@H](COC(F)F)Nc4cn[nH]c(=O)c4C(F)(F)F)c(=O)c3c(F)c2F)ncc1OC(F)F` [Example 397, (R)-6-(4-amino-5-(difluoromethoxy)pyrimidin-2-yl)-2-(5-(difluoromethoxy)-4-((6-oxo-5-(trifluoromethyl)-1,6-dihydropyridazin-4-yl)amino)pentyl)-7,8-difluoroisoquinolin-1(2H)-one] was tested. Which EC50 did it give?
Its EC50 is 10.1 nM.

`O=c1[nH]ncc(N[C@H](CCCn2cnc3cc(C4=CCCCO4)c(F)cc3c2=O)COC(F)F)c1C(F)(F)F` [Example 398, (R)-3-(5-(difluoromethoxy)-4-((6-oxo-5-(trifluoromethyl)-1,6-dihydropyridazin-4-yl)amino)pentyl)-7-(3,4-dihydro-2H-pyran-6-yl)-6-fluoroquinazolin-4(3H)-one] was tested. Which EC50 did it give?
The EC50 was 424 nM.

How did the EC50 turn out when `O=c1[nH]ncc(N[C@H](CCCn2ccc3cc(-c4ccc(C(F)(F)F)cn4)c(F)cc3c2=O)COC(F)F)c1C(F)(F)F` [Example 399, (R)-2-(5-(difluoromethoxy)-4-((6-oxo-5-(trifluoromethyl)-1,6-dihydropyridazin-4-yl)amino)pentyl)-7-fluoro-6-(5-(trifluoromethyl)pyridin-2-yl)isoquinolin-1(2H)-one] was run?
The EC50 was 2.98 nM.

For `Nc1cc(-c2cc3ccn(CCC[C@H](COC(F)F)Nc4cn[nH]c(=O)c4C(F)(F)F)c(=O)c3cc2F)cnc1C(F)(F)F` [Example 400, (R)-6-(5-amino-6-(trifluoromethyl)pyridin-3-yl)-2-(5-(difluoromethoxy)-4-((6-oxo-5-(trifluoromethyl)-1,6-dihydropyridazin-4-yl)amino)pentyl)-7-fluoroisoquinolin-1(2H)-one], which EC50 is on record?
Its EC50 is 56.8 nM.

For `O=c1[nH]ncc(N[C@H](CCCn2ccc3cc(-c4ccc(C(F)F)cn4)c(F)cc3c2=O)COC(F)F)c1C(F)(F)F` [Example 401, (R)-2-(5-(difluoromethoxy)-4-((6-oxo-5-(trifluoromethyl)-1,6-dihydropyridazin-4-yl)amino)pentyl)-6-(5-(difluoromethyl)pyridin-2-yl)-7-fluoroisoquinolin-1(2H)-one], which EC50 is on record?
Its EC50 is 1.63 nM.

With `O=c1[nH]ncc(N[C@H](CCCn2cnc3cc(-c4ccc(C(F)F)cn4)c(F)cc3c2=O)COC(F)F)c1C(F)(F)F` [Example 402, (R)-3-(5-(difluoromethoxy)-4-((6-oxo-5-(trifluoromethyl)-1,6-dihydropyridazin-4-yl)amino)pentyl)-7-(5-(difluoromethyl)pyridin-2-yl)-6-fluoroquinazolin-4(3H)-one] as the compound, how does the EC50 read?
The EC50 was 3.13 nM.

For `O=c1[nH]ncc(N[C@H](CCCn2cnc3cc(-c4ccc(C(F)(F)F)cn4)c(F)cc3c2=O)COC(F)F)c1C(F)(F)F` [Example 403, (R)-3-(5-(difluoromethoxy)-4-((6-oxo-5-(trifluoromethyl)-1,6-dihydropyridazin-4-yl)amino)pentyl)-6-fluoro-7-(5-(trifluoromethyl)pyridin-2-yl)quinazolin-4(3H)-one], which EC50 is on record?
The EC50 was 3.65 nM.

With `O=c1[nH]ncc(N[C@H](CCCn2cnc3nc(-c4ccc(C(F)(F)F)cn4)ccc3c2=O)COC(F)F)c1C(F)(F)F` [Example 404, (R)-3-(5-(difluoromethoxy)-4-((6-oxo-5-(trifluoromethyl)-1,6-dihydropyridazin-4-yl)amino)pentyl)-7-(5-(trifluoromethyl)pyridin-2-yl)pyrido[2,3-d]pyrimidin-4(3H)-one] as the compound, how does the EC50 read?
Its EC50 is 1.57 nM.

How did the EC50 turn out when `Nc1nc(-c2ccc3c(=O)n(CCC[C@H](COC(F)F)Nc4cn[nH]c(=O)c4C(F)(F)F)ccc3n2)ccc1C(F)(F)F` [Example 405, (R)-2-(6-amino-5-(trifluoromethyl)pyridin-2-yl)-6-(5-(difluoromethoxy)-4-((6-oxo-5-(trifluoromethyl)-1,6-dihydropyridazin-4-yl)amino)pentyl)-1,6-naphthyridin-5(6H)-one] was run?
Its EC50 is 9.67 nM.

`O=c1[nH]ncc(N[C@H](CCCn2ccc3cc(-c4ccc(C(F)F)cn4)c(F)c(F)c3c2=O)COC(F)F)c1C(F)(F)F` [Example 406, (R)-2-(5-(difluoromethoxy)-4-((6-oxo-5-(trifluoromethyl)-1,6-dihydropyridazin-4-yl)amino)pentyl)-6-(5-(difluoromethyl)pyridin-2-yl)-7,8-difluoroisoquinolin-1(2H)-one] was tested. Which EC50 did it give?
The EC50 was 1.72 nM.

With `O=c1[nH]ncc(N[C@H](CCCn2ccc3cc(-c4ccc(C(F)(F)F)cn4)c(F)c(F)c3c2=O)COC(F)F)c1C(F)(F)F` [Example 407, (R)-2-(5-(difluoromethoxy)-4-((6-oxo-5-(trifluoromethyl)-1,6-dihydropyridazin-4-yl)amino)pentyl)-7,8-difluoro-6-(5-(trifluoromethyl)pyridin-2-yl)isoquinolin-1(2H)-one] as the compound, how does the EC50 read?
Its EC50 is 1.99 nM.

How did the EC50 turn out when `O=c1[nH]ncc(N[C@H](CCCn2ccc3nc(-c4ccc(C(F)F)cn4)ccc3c2=O)COC(F)F)c1C(F)(F)F` [Example 408, (R)-6-(5-(difluoromethoxy)-4-((6-oxo-5-(trifluoromethyl)-1,6-dihydropyridazin-4-yl)amino)pentyl)-2-(5-(difluoromethyl)pyridin-2-yl)-1,6-naphthyridin-5(6H)-one] was run?
The EC50 was 4.11 nM.

`Nc1nc(-c2cc3ccn(CCC[C@H](COC(F)F)Nc4cn[nH]c(=O)c4C(F)(F)F)c(=O)c3cc2F)ccc1F` [Example 409, (R)-6-(6-amino-5-fluoropyridin-2-yl)-2-(5-(difluoromethoxy)-4-((6-oxo-5-(trifluoromethyl)-1,6-dihydropyridazin-4-yl)amino)pentyl)-7-fluoroisoquinolin-1(2H)-one] was tested. Which EC50 did it give?
Its EC50 is 4.49 nM.

For `Nc1nc(-c2cc3ccn(CCC[C@H](COC(F)F)Nc4cn[nH]c(=O)c4C(F)(F)F)c(=O)c3cc2F)ccc1Cl` [Example 410, (R)-6-(6-amino-5-chloropyridin-2-yl)-2-(5-(difluoromethoxy)-4-((6-oxo-5-(trifluoromethyl)-1,6-dihydropyridazin-4-yl)amino)pentyl)-7-fluoroisoquinolin-1(2H)-one], which EC50 is on record?
Its EC50 is 0.99 nM.

Which EC50 does the source give for `N#Cc1ccc(-c2cc3ccn(CCC[C@H](COC(F)F)Nc4cn[nH]c(=O)c4C(F)(F)F)c(=O)c3cc2F)nc1N` [Example 411, (R)-2-amino-6-(2-(5-(difluoromethoxy)-4-((6-oxo-5-(trifluoromethyl)-1,6-dihydropyridazin-4-yl)amino)pentyl)-7-fluoro-1-oxo-1,2-dihydroisoquinolin-6-yl)nicotinonitrile] here?
Its EC50 is 5.28 nM.
